Measured values from ChEMBL document CHEMBL4483862, “Open-source discovery of chemical leads for next-generation chemoprotective antimalarials” (2018).

System: Plasmodium berghei
Assay: Luciferase/luciferin-expressing antifolate-resistant parasites were used to infect a culture of HepG2 cells that were pre-incubated with compounds. Infected hepatocytes emit light due to the luciferase reaction. Assay results are presented as the percent inhibition of light emission compared to control. […]
Assay type: functional
Settings: sporozoite; for IC90: read-out: LUCIFERASE INFECTION ASSAY - IC90
[1] = read-out: LUCIFERASE INFECTION ASSAY - IC50

SMILES	IC90 [µM]	IC50 [1] [µM]	further results
CC1CC(NC(=O)c2cc3c(=O)n4ccccc4nc3n2C)CC(C)(C)C1 (stereo not given)	2.74		IC50 (PBLUC_HILL_SLOPE 172, PBLUC_R_SQUARED 0.0501, read-out: LUCIFERASE INFECTION ASSAY - IC50): 2.7 µM
O=C(CN1CCCc2ccccc21)NC(=O)NCc1ccccc1	7.44		IC50 (PBLUC_HILL_SLOPE 112, PBLUC_R_SQUARED 0.458, read-out: LUCIFERASE INFECTION ASSAY - IC50): 7.29 µM
COc1ccccc1N(Cc1ccccc1)S(=O)(=O)c1cccc(C(=O)NC2CC(C)(C)NC(C)(C)C2)c1	9.9		IC50 (PBLUC_HILL_SLOPE 145, PBLUC_R_SQUARED 0.235, read-out: LUCIFERASE INFECTION ASSAY - IC50): 9.75 µM
NC(Cc1ccc(F)cc1)c1csc(Nc2ccc(C(F)(F)F)cn2)n1 (stereo not given)	5.98		IC50 (PBLUC_HILL_SLOPE 202, PBLUC_R_SQUARED 0.785, read-out: LUCIFERASE INFECTION ASSAY - IC50): 5.91 µM
COc1ccc(CC(N)c2csc(NC(=O)Nc3ccccc3C(C)(C)C)n2)cc1 (stereo not given)	4.27		IC50 (PBLUC_HILL_SLOPE 104, PBLUC_R_SQUARED 0.386, read-out: LUCIFERASE INFECTION ASSAY - IC50): 4.18 µM
COc1cccc(Nc2nc(C(N)Cc3ccc(C(F)(F)F)cc3)cs2)n1 (stereo not given)	3.58		IC50 (PBLUC_HILL_SLOPE 179, PBLUC_R_SQUARED 0.233, read-out: LUCIFERASE INFECTION ASSAY - IC50): 3.53 µM
CCNC(=O)C1CCCN(Cc2cc(C(F)(F)F)ccc2Cl)CC1 (stereo not given)	3.4		IC50 (PBLUC_HILL_SLOPE 383, PBLUC_R_SQUARED 0.415, read-out: LUCIFERASE INFECTION ASSAY - IC50): 3.38 µM
C=C(c1c[nH]c2ccccc12)c1c[nH]c2ccccc12	> 10		IC50 (PBLUC_HILL_SLOPE 132, PBLUC_R_SQUARED 0.705, read-out: LUCIFERASE INFECTION ASSAY - IC50): 9.85 µM
CN(C)c1cccc(-c2cnc3sc(NCc4ccncc4)nn23)c1	> 9.42	> 9.42	
CCCn1c(N)c(C(=O)CN(C)Cc2cccc(Cl)c2Cl)c(=O)[nH]c1=O	3.38		IC50 (PBLUC_HILL_SLOPE 149, PBLUC_R_SQUARED 0.302, read-out: LUCIFERASE INFECTION ASSAY - IC50): 3.33 µM
Cc1ccc(CNc2nc(NCc3cccs3)nc3ccsc23)c(C)c1	1.63		IC50 (PBLUC_HILL_SLOPE 356, PBLUC_R_SQUARED 0.443, read-out: LUCIFERASE INFECTION ASSAY - IC50): 1.62 µM
CN(C)c1cccc(-c2cnc3sc(NCCc4ccncc4)nn23)c1	> 9.05	> 9.05	
CN(C)c1ccccc1-c1cnc2sc(NC3CCC(O)CC3)nn12 (stereo not given)	> 9.23	8.17	
COc1ccc(C(N)c2csc(NC(=O)NC(c3ccccc3)c3ccccc3)n2)cc1 (stereo not given)	3.36		IC50 (PBLUC_HILL_SLOPE 167, PBLUC_R_SQUARED 0.12, read-out: LUCIFERASE INFECTION ASSAY - IC50): 3.31 µM
CNc1snc(C)c1C(=O)OCCCOC(=O)c1c(C)nsc1NC	6.67		IC50 (PBLUC_HILL_SLOPE 109, PBLUC_R_SQUARED 0.523, read-out: LUCIFERASE INFECTION ASSAY - IC50): 6.54 µM
Cc1nc(-c2cccc(NC(=O)c3ccc(OC(F)F)cc3)c2)[nH]c1C	2.68		IC50 (PBLUC_HILL_SLOPE 207, PBLUC_R_SQUARED 0.671, read-out: LUCIFERASE INFECTION ASSAY - IC50): 2.66 µM
Cc1ccc(C)c(-c2csc(NC(=O)CCNC(=O)c3ccsc3)n2)c1	5.37		IC50 (PBLUC_HILL_SLOPE 433, PBLUC_R_SQUARED 0.479, read-out: LUCIFERASE INFECTION ASSAY - IC50): 5.35 µM
CC(=O)NCCC(=O)N(Cc1ccccc1)c1nc2c(C(C)C)cccc2s1	6.02		IC50 (PBLUC_HILL_SLOPE 286, PBLUC_R_SQUARED 0.442, read-out: LUCIFERASE INFECTION ASSAY - IC50): 5.98 µM
CNc1nc(NCc2cccc(OC)c2)c2sc(-c3ccccc3)cc2n1	> 8.77	> 8.77	
O=C(/C=C/c1cnn(Cc2ccccc2)c1)N1CCN(Cc2ccc(Cl)cc2)CC1	6.97		IC50 (PBLUC_HILL_SLOPE 126, PBLUC_R_SQUARED 0.0794, read-out: LUCIFERASE INFECTION ASSAY - IC50): 6.85 µM
COc1ccc2c(C)cc3nnc(SCCOc4ccccc4F)n3c2c1	5.11		IC50 (PBLUC_HILL_SLOPE 752, PBLUC_R_SQUARED 0.219, read-out: LUCIFERASE INFECTION ASSAY - IC50): 5.09 µM
c1ccc(Sc2ncnc3sccc23)nc1	6.79		IC50 (PBLUC_HILL_SLOPE 117, PBLUC_R_SQUARED 0.0329, read-out: LUCIFERASE INFECTION ASSAY - IC50): 6.66 µM
Cc1cccc2sc(N(Cc3ccccc3)C(=O)CN3CCN(CC(=O)N4CCCC4)CC3)nc12	6.71		IC50 (PBLUC_HILL_SLOPE 173, PBLUC_R_SQUARED 0.447, read-out: LUCIFERASE INFECTION ASSAY - IC50): 6.63 µM
CCOc1cc(/C=C(/C(=O)c2ccc(Br)cc2)c2nc3ccccc3[nH]2)ccc1O	4.59		IC50 (PBLUC_HILL_SLOPE 158, PBLUC_R_SQUARED 0.0148, read-out: LUCIFERASE INFECTION ASSAY - IC50): 4.53 µM
Clc1ccc(-c2cnc3sc(NCCc4ccncc4)nn23)cc1	> 9.27	> 9.27	

SMILES	IC90 [µM]	IC50 [1] [µM]	further results
O=C(NCCC(=O)N1CCc2sccc2C1c1ccccc1)c1ccsc1 (stereo not given)	5.51		IC50 (PBLUC_HILL_SLOPE 101, PBLUC_R_SQUARED 0.289, read-out: LUCIFERASE INFECTION ASSAY - IC50): 5.39 µM
CCc1sc(C(=O)Nc2ccc(F)c(Cl)c2)cc1C	8.57		IC50 (PBLUC_HILL_SLOPE 228, PBLUC_R_SQUARED 0.104, read-out: LUCIFERASE INFECTION ASSAY - IC50): 8.49 µM
CCn1nnc2cc(C(=O)Nc3cc(C(F)(F)F)ccc3N(C)C)ccc21	7.74		IC50 (PBLUC_HILL_SLOPE 154, PBLUC_R_SQUARED 0.344, read-out: LUCIFERASE INFECTION ASSAY - IC50): 7.63 µM
CSc1nc(=O)nc(-c2ccc(Cl)cc2)[nH]1	> 13	> 13	
CC(C)C(N)c1csc(NC(=O)c2cc(C(C)(C)C)nn2Cc2ccccc2)n1 (stereo not given)	3.46		IC50 (PBLUC_HILL_SLOPE 594, PBLUC_R_SQUARED 0.291, read-out: LUCIFERASE INFECTION ASSAY - IC50): 3.45 µM
CCn1c(NC(=O)Cc2c(Cl)cccc2Cl)nc2ccccc21	6.27		IC50 (PBLUC_HILL_SLOPE 118, PBLUC_R_SQUARED 0.0721, read-out: LUCIFERASE INFECTION ASSAY - IC50): 6.16 µM
Cc1cccc(Nc2ccccc2C(=O)OCC(=O)N2CCNC2=O)c1C	7.08		IC50 (PBLUC_HILL_SLOPE 113, PBLUC_R_SQUARED 0.339, read-out: LUCIFERASE INFECTION ASSAY - IC50): 6.94 µM
O=C(Nc1ccc(OC(F)(F)F)cc1)Nc1ccc2nc(-c3ccco3)nn2c1	7.51		IC50 (PBLUC_HILL_SLOPE 672, PBLUC_R_SQUARED 0.263, read-out: LUCIFERASE INFECTION ASSAY - IC50): 7.48 µM
COC(=O)c1occc1CSc1nc2ccc(Br)cc2c(=O)n1-c1ccccc1	> 10		IC50 (PBLUC_HILL_SLOPE 130, PBLUC_R_SQUARED 0.0623, read-out: LUCIFERASE INFECTION ASSAY - IC50): 10 µM
CC(C)(C)c1cc(=O)n(-c2nc3ccc(Cl)cc3s2)[nH]1	> 10.7	> 10.7	
CC(C)c1ccc(-c2cnc3sc(NCCCO)nn23)cc1	> 10.4	> 10.4	
CCCn1c(N)c(C(=O)CNc2ccccc2N2CCCCCC2)c(=O)n(C)c1=O	5.69		IC50 (PBLUC_HILL_SLOPE 99.9, PBLUC_R_SQUARED 0.404, read-out: LUCIFERASE INFECTION ASSAY - IC50): 5.56 µM
CC(C)(C)OC(=O)N[C@@H](Cc1ccccc1)c1n[nH]c(=S)n1CC1CCCO1 (stereo not given in full)	> 8.16	> 8.16	
c1ccc(-c2cnc3sc(NCCc4ccncc4)nn23)cc1	> 10.3	> 10.3	
O=C(Nc1cccc(F)c1)Nc1ccc2nc(-c3cccs3)nn2c1	4.34		IC50 (PBLUC_HILL_SLOPE 208, PBLUC_R_SQUARED 0.19, read-out: LUCIFERASE INFECTION ASSAY - IC50): 4.29 µM
NC(Cc1ccccc1)c1csc(Nc2ccc(-c3ccccc3)nn2)n1 (stereo not given)	5.82		IC50 (PBLUC_HILL_SLOPE 170, PBLUC_R_SQUARED 0.669, read-out: LUCIFERASE INFECTION ASSAY - IC50): 5.74 µM
Cc1ccc(C(C)C)cc1OCC(=O)N1CCC(C(=O)Nc2ccccc2O)CC1	4.58		IC50 (PBLUC_HILL_SLOPE 135, PBLUC_R_SQUARED 0.614, read-out: LUCIFERASE INFECTION ASSAY - IC50): 4.51 µM
CN(C)c1cccc(-c2cnc3sc(NCc4cccnc4)nn23)c1	> 9.42	> 9.42	
CC(C)c1ccc2c(c1)/C(=N/NC(=O)c1ccccc1F)C(=O)N2	0.084		IC50 (PBLUC_HILL_SLOPE 280, PBLUC_R_SQUARED 0.522, read-out: LUCIFERASE INFECTION ASSAY - IC50): 0.0833 µM
CN(C)c1cccc(-c2cnc3sc(NCCCO)nn23)c1	> 10.4	> 10.4	
COc1ccc(N2C(=N)C(c3nc4ccccc4s3)C(=O)C2c2ccccc2)cc1 (stereo not given)	4.06		IC50 (PBLUC_HILL_SLOPE 428, PBLUC_R_SQUARED 0.387, read-out: LUCIFERASE INFECTION ASSAY - IC50): 4.04 µM
C=CCNC(=S)N1CCc2c([nH]c3ccccc23)C1C(F)(F)F (stereo not given)	> 9.72	> 9.72	
FC(F)(F)c1ccccc1NC(=S)N1CCCN(c2nc3ccc(Cl)cc3s2)CC1	2.54	2.32	
CC(C)CCNCC(O)CON=C1c2ccccc2-c2ccccc21 (stereo not given)	> 10	> 10	
CCc1cc2c(Sc3nnc(N)s3)ncnc2s1	> 11.2	> 11.2	
